*1 amine or outer side, *2 acyl side, *3 side chain or, on linkers, in order; H or OH if unused. Where a SMILES comes first, the peptide text is derived from it. Bridges are numbered along the chain shown (N, C = ends). [ ]: non-standard residue; d: D form. ξ: configuration not given here. X3 = CC(=O)N(C)C(Cc1ccc(O)cc1)C(=O)OC(CC(O)C(O)CC(C)C)CC(N[*:2])C(O)C(=O)[*:1]; X2 = COc1ccc(CCC(N[*:1])C(=O)[*:2])cc1; d(aIle) = CC[C@H](C)[C@@H](N)C(=O)O; hTyr = N[C@@H](CCc1ccc(O)cc1)C(=O)O; hPhe = N[C@@H](CCc1ccccc1)C(=O)O; X1 = C/C=C(/N[*:1])C(=O)[*:2]; ξhPhe = NC(CCc1ccccc1)C(=O)O; NMeA = CN[C@@H](C)C(=O)O; CO = O=C([*:1])[*:2]
Biological target: 20S proteasome, human (Homo sapiens, UniProt P28074)
Assay: 20S proteasome assay
Type: biochemical
Details: chymotrypsin-like activity; for 20S proteasome inhibitory activity: at 50 μM; for IC50: read-out: 20S proteasome inhibition IC50

CC[C@H](C)[C@@H]1NC(=O)[C@H](NC(=O)N[C@H](Cc2ccccc2)C(=O)O)CCCCNC(=O)[C@H](CCc2ccccc2)NC(=O)[C@H](C)N(C)C(=O)[C@H](CCc2ccc(O)cc2)NC1=O [compound 1, Lyngbyaureidamide A] ({dF-CO}-[dK]I[hTyr][NMeA][hPhe]; lactam 1-C)
20S proteasome inhibitory activity: not active

CC[C@H](C)[C@@H]1NC(=O)[C@H](NC(=O)N[C@H](Cc2ccccc2)C(=O)O)CCCCNC(=O)[C@H](Cc2ccccc2)NC(=O)[C@H](C)N(C)C(=O)[C@H](CCc2ccc(O)cc2)NC1=O [compound 2, Lyngbyaureidamide B] ({dF-CO}-[dK]I[hTyr][NMeA]F; lactam 1-C)
20S proteasome inhibitory activity: not active

C/C=C1/NC(=O)[C@H](CO)NC(=O)[C@@H]([C@@H](C)CC)NC(=O)[C@@H]2CCCN2C(=O)[C@@H]2CCCN2C(=O)CNC(=O)[C@H](CCC(N)=O)NC(=O)C(O)C(CC(CC(O)C(O)CC(C)C)OC(=O)C(Cc2ccc(O)cc2)N(C)C(C)=O)NC(=O)[C@@H]2CCCN2C(=O)C(CCc2ccc(OC)cc2)NC(=O)[C@H]([C@@H](C)O)NC1=O (stereo partly shown) [compound 3, Lyngbyazothrin C] (QGPP[d(aIle)]S[X1]T[X2]P; linker N-C via X3)
IC50: 7.1 µM

C/C=C1/NC(=O)[C@H](CO)NC(=O)[C@@H]([C@@H](C)CC)NC(=O)[C@@H]2CCCN2C(=O)[C@@H]2CCCN2C(=O)CNC(=O)[C@H](CCC(N)=O)NC(=O)C(O)C(CC(CC(O)C(O)CC(C)C)OC(=O)C(Cc2ccc(O)cc2)N(C)C(C)=O)NC(=O)[C@@H]2CCCN2C(=O)C(CCc2ccccc2)NC(=O)[C@H]([C@@H](C)O)NC1=O (stereo partly shown) [compound 4, Lyngbyazothrin D] (QGPP[d(aIle)]S[X1]T[ξhPhe]P; linker N-C via X3)
IC50: 19.2 µM

— publication PMC3262893 (Phytochemistry, 2011)
